{
  "source": "ChEMBL document CHEMBL4196027",
  "about": "“Structure-based discovery of cytotoxic dimeric tetrahydroxanthones as potential topoisomerase I inhibitors from a marine-derived fungus” (Eur J Med Chem, 2018)",
  "key": {"MGC-803 [1]": {"system": "MGC-803", "experiment": "Cell cycle arrest in human MGC803 cells assessed as accumulation at G2/M phase at 6.25 uM after 24 hrs by propidium iodide staining based flow cytometry (reference value: 9.15%)", "format": "functional"}, "MGC-803 [2]": {"system": "MGC-803", "experiment": "Induction of apoptosis in human MGC803 cells assessed as necrotic cells at 6.25 uM after 24 hrs by Annexin V-FITC/propidium iodide staining based flow cytometry (reference value: 0.92%)", "format": "functional"}, "MGC-803 [3]": {"system": "MGC-803", "experiment": "Induction of apoptosis in human MGC803 cells assessed as late apoptotic cells at 12.5 uM after 24 hrs by Annexin V-FITC/propidium iodide staining based flow cytometry (reference value: 0.12%)", "format": "functional"}, "MGC-803 [4]": {"system": "MGC-803", "experiment": "Induction of apoptosis in human MGC803 cells assessed as early apoptotic cells at 6.25 uM after 24 hrs by Annexin V-FITC/propidium iodide staining based flow cytometry (reference value: 0.56%)", "format": "functional"}, "HCT-116": {"system": "HCT-116", "experiment": "Cytotoxicity against human HCT116 cells assessed as reduction in cell proliferation after 48 hrs by MTT assay", "format": "functional, cell-based", "details": "Homo sapiens, HCT-116, 48 h"}, "MGC-803 [5]": {"system": "MGC-803", "experiment": "Cell cycle arrest in human MGC803 cells assessed as accumulation at S phase at 25 uM after 24 hrs by propidium iodide staining based flow cytometry (reference value: 31.17%)", "format": "functional"}, "MGC-803 [6]": {"system": "MGC-803", "experiment": "Induction of apoptosis in human MGC803 cells assessed as early apoptotic cells at 25 uM after 24 hrs by Annexin V-FITC/propidium iodide staining based flow cytometry (reference value: 0.56%)", "format": "functional"}, "HEK293": {"system": "HEK293", "experiment": "Cytotoxicity against HEK293 cells assessed as reduction in cell proliferation after 48 hrs by MTT assay", "format": "cell-based", "details": "Homo sapiens, HEK293, 48 h"}, "NCI-H1975": {"system": "NCI-H1975", "experiment": "Cytotoxicity against human NCI-H1975 cells assessed as reduction in cell proliferation after 48 hrs by MTT assay", "format": "functional, cell-based", "details": "Homo sapiens, NCI-H1975, 48 h"}, "MGC-803 [7]": {"system": "MGC-803", "experiment": "Induction of necrosis in human MGC803 cells at 12.5 uM after 48 hrs by Hoechst 33342/propidium iodide staining based flow cytometry (reference value: 3.73%)", "format": "functional"}, "MGC-803 [8]": {"system": "MGC-803", "experiment": "Cell cycle arrest in human MGC803 cells assessed as accumulation at S phase at 6.25 uM after 24 hrs by propidium iodide staining based flow cytometry (reference value: 31.17%)", "format": "functional"}, "MGC-803 [9]": {"system": "MGC-803", "experiment": "Cell cycle arrest in human MGC803 cells assessed as accumulation at S phase at 12.5 uM after 24 hrs by propidium iodide staining based flow cytometry (reference value: 31.17%)", "format": "functional"}, "MGC-803 [10]": {"system": "MGC-803", "experiment": "Induction of apoptosis in human MGC803 cells assessed as necrotic cells at 12.5 uM after 24 hrs by Annexin V-FITC/propidium iodide staining based flow cytometry (reference value: 0.92%)", "format": "functional"}, "MGC-803 [11]": {"system": "MGC-803", "experiment": "Induction of apoptosis in human MGC803 cells assessed as late apoptotic cells at 25 uM after 24 hrs by Annexin V-FITC/propidium iodide staining based flow cytometry (reference value: 0.12%)", "format": "functional"}, "MGC-803 [12]": {"system": "MGC-803", "experiment": "Induction of apoptosis in human MGC803 cells assessed as early apoptotic cells at 12.5 uM after 24 hrs by Annexin V-FITC/propidium iodide staining based flow cytometry (reference value: 0.56%)", "format": "functional"}, "MGC-803 [13]": {"system": "MGC-803", "experiment": "Cell cycle arrest in human MGC803 cells assessed as accumulation at G0/G1 phase at 12.5 uM after 24 hrs by propidium iodide staining based flow cytometry (reference value: 59.68%)", "format": "functional"}, "MGC-803 [14]": {"system": "MGC-803", "experiment": "Induction of apoptosis in human MGC803 cells assessed as late apoptotic cells at 6.25 uM after 24 hrs by Annexin V-FITC/propidium iodide staining based flow cytometry (reference value: 0.12%)", "format": "functional"}, "MGC-803 [15]": {"system": "MGC-803", "experiment": "Induction of necrosis in human MGC803 cells at 6.25 uM after 48 hrs by Hoechst 33342/propidium iodide staining based flow cytometry (reference value: 3.73%)", "format": "functional"}, "[16]": {"experiment": "Cytotoxicity against human HO8910 cells assessed as reduction in cell proliferation after 48 hrs by MTT assay", "format": "functional, cell-based", "details": "Homo sapiens, HO-8910, 48 h"}, "HL-60": {"system": "HL-60", "experiment": "Cytotoxicity against human HL60 cells assessed as reduction in cell proliferation after 48 hrs by MTT assay", "format": "functional, cell-based", "details": "Homo sapiens, HL-60, 48 h"}, "MGC-803 [17]": {"system": "MGC-803", "experiment": "Cell cycle arrest in human MGC803 cells assessed as accumulation at G2/M phase at 25 uM after 24 hrs by propidium iodide staining based flow cytometry (reference value: 9.15%)", "format": "functional"}, "MGC-803 [18]": {"system": "MGC-803", "experiment": "Cell cycle arrest in human MGC803 cells assessed as accumulation at G0/G1 phase at 25 uM after 24 hrs by propidium iodide staining based flow cytometry (reference value: 59.68%)", "format": "functional"}, "MGC-803 [19]": {"system": "MGC-803", "experiment": "Cytotoxicity against human MGC803 cells assessed as reduction in cell proliferation after 48 hrs by MTT assay", "format": "functional, cell-based", "details": "Homo sapiens, MGC-803, 48 h"}, "MGC-803 [20]": {"system": "MGC-803", "experiment": "Cell cycle arrest in human MGC803 cells assessed as accumulation at G2/M phase at 12.5 uM after 24 hrs by propidium iodide staining based flow cytometry (reference value: 9.15%)", "format": "functional"}, "MGC-803 [21]": {"system": "MGC-803", "experiment": "Cell cycle arrest in human MGC803 cells assessed as accumulation at G0/G1 phase at 6.25 uM after 24 hrs by propidium iodide staining based flow cytometry (reference value: 59.68%)", "format": "functional"}, "A549": {"system": "A549", "experiment": "Cytotoxicity against human A549 cells assessed as reduction in cell proliferation after 48 hrs by MTT assay", "format": "functional, cell-based", "details": "Homo sapiens, A549, 48 h"}, "MGC-803 [22]": {"system": "MGC-803", "experiment": "Induction of necrosis in human MGC803 cells at 25 uM after 48 hrs by Hoechst 33342/propidium iodide staining based flow cytometry (reference value: 3.73%)", "format": "functional"}, "K562": {"system": "K562", "experiment": "Cytotoxicity against human K562 cells assessed as reduction in cell proliferation after 48 hrs by MTT assay", "format": "functional, cell-based", "details": "Homo sapiens, K562, 48 h"}, "MGC-803 [23]": {"system": "MGC-803", "experiment": "Induction of apoptosis in human MGC803 cells assessed as necrotic cells at 25 uM after 24 hrs by Annexin V-FITC/propidium iodide staining based flow cytometry (reference value: 0.92%)", "format": "functional"}},
  "note": "pIC50: −log10 of the molar value.",
  "data": [
    {"compound": "COC(=O)[C@@]12Oc3cc(C)c(-c4ccc5c(c4O)C(=O)C4=C(O)C[C@H](C)[C@@H](O)[C@]4(C(=O)OC)O5)c(O)c3C(=O)C1=C(O)CC[C@H]2O", "note": "(stereo in doubt; 1)", "values": [
      {"measurement": "Activity", "setting": "MGC-803 [1]", "value": 35.33, "unit": "%"},
      {"measurement": "Activity", "setting": "MGC-803 [2]", "value": 1.88, "unit": "%"},
      {"measurement": "Activity", "setting": "MGC-803 [3]", "value": 0.56, "unit": "%"},
      {"measurement": "Activity", "setting": "MGC-803 [4]", "value": 0.26, "unit": "%"},
      {"measurement": "pIC50", "setting": "HCT-116", "value": 4.79},
      {"measurement": "Activity", "setting": "MGC-803 [5]", "value": 22.9, "unit": "%"},
      {"measurement": "Activity", "setting": "MGC-803 [6]", "value": 0.26, "unit": "%"},
      {"measurement": "pIC50", "setting": "HEK293", "value": "< 4.30"},
      {"measurement": "pIC50", "setting": "NCI-H1975", "value": 5.01},
      {"measurement": "Activity", "setting": "MGC-803 [7]", "value": 19.29, "unit": "%"},
      {"measurement": "Activity", "setting": "MGC-803 [8]", "value": 31.02, "unit": "%"},
      {"measurement": "Activity", "setting": "MGC-803 [9]", "value": 36.98, "unit": "%"},
      {"measurement": "Activity", "setting": "MGC-803 [10]", "value": 1.46, "unit": "%"},
      {"measurement": "Activity", "setting": "MGC-803 [11]", "value": 0.59, "unit": "%"},
      {"measurement": "Activity", "setting": "MGC-803 [12]", "value": 0.42, "unit": "%"},
      {"measurement": "Activity", "setting": "MGC-803 [13]", "value": 25.7, "unit": "%"},
      {"measurement": "Activity", "setting": "MGC-803 [14]", "value": 0.17, "unit": "%"},
      {"measurement": "Activity", "setting": "MGC-803 [15]", "value": 6.97, "unit": "%"},
      {"measurement": "pIC50", "setting": "[16]", "value": 5.02},
      {"measurement": "pIC50", "setting": "HL-60", "value": 4.87},
      {"measurement": "Activity", "setting": "MGC-803 [17]", "value": 47.43, "unit": "%"},
      {"measurement": "Activity", "setting": "MGC-803 [18]", "value": 29.67, "unit": "%"},
      {"measurement": "pIC50", "setting": "MGC-803 [19]", "value": 5.34},
      {"measurement": "Activity", "setting": "MGC-803 [20]", "value": 37.32, "unit": "%"},
      {"measurement": "Activity", "setting": "MGC-803 [21]", "value": 33.65, "unit": "%"},
      {"measurement": "pIC50", "setting": "A549", "value": 4.75},
      {"measurement": "Activity", "setting": "MGC-803 [22]", "value": 31.33, "unit": "%"},
      {"measurement": "pIC50", "setting": "K562", "value": 4.68},
      {"measurement": "Activity", "setting": "MGC-803 [23]", "value": 4.06, "unit": "%"}
    ]}
  ]
}
